≈ marks a conversion by molar mass, not a printed value.
Tests used:
Caco-2 = assay: Permeability across human Caco2 cells; format: ADME, cell-based
[1] = system: Mycobacterium tuberculosis; assay: Antimycobacterial activity against Mycobacterium tuberculosis H37Rv ATCC 27294 incubated for 7 days by microdilution method; format: functional; details: H37Rv ATCC 27294, 168 h
[2] = Solubility of the compound; format: physicochemical
[3] = target: DNA gyrase subunit A/DNA gyrase subunit B (Mycobacterium tuberculosis (strain ATCC 25618 / H37Rv), UniProt P9WG45+P9WG47); assay: Inhibition of Mycobacterium tuberculosis H37Rv DNA gyrase assessed as supercoiling of pBR322 DNA after 90 mins by agarose gel electrophoresis method
[4] = target: Voltage-gated inwardly rectifying potassium channel KCNH2 (Homo sapiens, UniProt Q12809)
Description: Inhibition of human ERG by IonWorks assay

[5] = system: Mycobacterium tuberculosis; assay: Antimycobacterial activity against Mycobacterium tuberculosis infected in human THP1 cells assessed as bacteria killing effect at 1 to 16 ug/ml; format: functional, THP-1
[6] = system: Mycobacterium tuberculosis; assay: Antimycobacterial activity against Mycobacterium tuberculosis in acute mouse model of tuberculosis assessed as bacteria killing effect at 100 mg/kg, po bid administered for 10 days relative to early control; format: functional
[7] = system: Mycobacterium tuberculosis; assay: Antimycobacterial activity against Mycobacterium tuberculosis infected in human THP1 cells assessed as bacteria killing effect; format: functional, organism-based; details: THP-1

Voltage-gated inwardly rectifying potassium channel KCNH2, sequence (Q12809 whole entry): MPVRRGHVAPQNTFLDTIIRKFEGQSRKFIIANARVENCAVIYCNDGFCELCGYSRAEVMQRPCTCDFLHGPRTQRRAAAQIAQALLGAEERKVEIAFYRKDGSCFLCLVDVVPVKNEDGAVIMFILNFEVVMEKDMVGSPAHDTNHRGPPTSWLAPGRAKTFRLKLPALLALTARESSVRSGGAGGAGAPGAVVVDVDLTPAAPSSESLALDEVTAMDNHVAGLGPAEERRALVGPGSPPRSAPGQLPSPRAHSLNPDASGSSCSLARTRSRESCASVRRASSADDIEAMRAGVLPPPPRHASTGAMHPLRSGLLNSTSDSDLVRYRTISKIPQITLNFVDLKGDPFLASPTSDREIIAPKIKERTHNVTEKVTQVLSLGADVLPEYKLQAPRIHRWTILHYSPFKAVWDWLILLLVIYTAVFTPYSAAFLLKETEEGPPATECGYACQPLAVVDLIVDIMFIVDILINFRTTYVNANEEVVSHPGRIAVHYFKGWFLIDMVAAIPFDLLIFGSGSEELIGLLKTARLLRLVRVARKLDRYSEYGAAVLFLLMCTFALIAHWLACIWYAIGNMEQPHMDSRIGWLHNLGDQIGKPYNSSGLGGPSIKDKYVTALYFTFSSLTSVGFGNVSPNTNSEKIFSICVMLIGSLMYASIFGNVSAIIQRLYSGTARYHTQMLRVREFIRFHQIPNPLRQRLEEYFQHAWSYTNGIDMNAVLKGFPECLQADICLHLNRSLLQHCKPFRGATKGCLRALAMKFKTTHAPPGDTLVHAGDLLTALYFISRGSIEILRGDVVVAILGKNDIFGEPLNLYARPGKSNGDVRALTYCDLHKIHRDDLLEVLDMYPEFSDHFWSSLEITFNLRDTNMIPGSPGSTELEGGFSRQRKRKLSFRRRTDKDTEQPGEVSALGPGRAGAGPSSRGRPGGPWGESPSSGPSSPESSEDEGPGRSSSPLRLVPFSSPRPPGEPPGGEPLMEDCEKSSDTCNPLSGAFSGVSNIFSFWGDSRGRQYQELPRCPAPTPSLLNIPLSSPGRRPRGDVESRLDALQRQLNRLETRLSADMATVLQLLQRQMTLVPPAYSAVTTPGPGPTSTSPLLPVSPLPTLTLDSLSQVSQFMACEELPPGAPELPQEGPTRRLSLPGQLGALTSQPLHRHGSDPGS
DNA gyrase subunit A/DNA gyrase subunit B, sequence (P9WG45 whole entry): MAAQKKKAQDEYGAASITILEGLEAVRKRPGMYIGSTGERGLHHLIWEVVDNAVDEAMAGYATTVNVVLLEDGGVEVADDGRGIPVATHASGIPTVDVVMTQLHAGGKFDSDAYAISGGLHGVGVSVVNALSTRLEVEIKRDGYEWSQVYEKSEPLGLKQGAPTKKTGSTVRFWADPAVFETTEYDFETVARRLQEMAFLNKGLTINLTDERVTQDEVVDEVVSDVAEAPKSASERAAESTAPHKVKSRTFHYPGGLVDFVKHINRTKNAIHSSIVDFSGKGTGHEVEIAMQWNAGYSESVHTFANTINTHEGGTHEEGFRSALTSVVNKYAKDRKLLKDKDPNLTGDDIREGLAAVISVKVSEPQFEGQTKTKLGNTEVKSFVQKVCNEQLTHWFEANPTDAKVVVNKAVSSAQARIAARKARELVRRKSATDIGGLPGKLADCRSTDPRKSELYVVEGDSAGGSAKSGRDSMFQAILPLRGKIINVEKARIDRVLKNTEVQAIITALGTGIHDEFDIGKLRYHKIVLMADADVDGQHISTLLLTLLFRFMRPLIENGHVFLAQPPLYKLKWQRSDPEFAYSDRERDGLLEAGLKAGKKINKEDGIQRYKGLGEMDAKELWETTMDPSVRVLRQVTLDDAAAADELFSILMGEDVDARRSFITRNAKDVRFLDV
DNA gyrase subunit A/DNA gyrase subunit B, sequence (P9WG47 whole entry): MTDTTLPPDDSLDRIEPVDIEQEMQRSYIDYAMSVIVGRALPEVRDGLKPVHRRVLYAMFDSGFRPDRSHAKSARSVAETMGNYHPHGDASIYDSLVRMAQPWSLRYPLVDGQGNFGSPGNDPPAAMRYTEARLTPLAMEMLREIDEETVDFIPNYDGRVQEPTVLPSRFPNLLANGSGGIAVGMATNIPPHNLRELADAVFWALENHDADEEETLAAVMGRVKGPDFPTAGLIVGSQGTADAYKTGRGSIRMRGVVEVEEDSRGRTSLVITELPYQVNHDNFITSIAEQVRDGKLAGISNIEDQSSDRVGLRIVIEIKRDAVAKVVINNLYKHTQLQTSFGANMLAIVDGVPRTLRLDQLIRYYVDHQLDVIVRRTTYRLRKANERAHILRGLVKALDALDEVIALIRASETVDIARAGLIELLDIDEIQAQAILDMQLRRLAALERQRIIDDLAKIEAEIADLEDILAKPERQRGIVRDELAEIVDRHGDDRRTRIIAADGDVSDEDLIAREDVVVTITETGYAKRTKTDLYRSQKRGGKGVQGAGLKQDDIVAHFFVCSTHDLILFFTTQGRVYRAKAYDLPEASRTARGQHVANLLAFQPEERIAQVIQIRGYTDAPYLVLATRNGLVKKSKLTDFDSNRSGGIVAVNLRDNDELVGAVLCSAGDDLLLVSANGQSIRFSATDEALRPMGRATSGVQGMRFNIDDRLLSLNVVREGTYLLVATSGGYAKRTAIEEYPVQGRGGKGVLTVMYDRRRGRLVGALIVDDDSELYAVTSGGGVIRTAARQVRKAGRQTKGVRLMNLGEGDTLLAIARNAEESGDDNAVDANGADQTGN

Row | Structure (SMILES) | MIC [1] | also measured
1 | O=C1COc2ccc(CNC3CCN(CCn4c(=O)ccc5ncc(Oc6ccon6)cc54)CC3)nc2N1 | 0.25 µM (≈ 0.129 µg/mL) | permeability (Caco-2): permeable; solubility [2]: 665 µM (≈ 344 µg/mL)
2 | O=C1COc2ccc(CNC3CCN(CCn4c(=O)ccc5ccc(Oc6cncnc6)nc54)CC3)nc2N1 | 0.25 µM (≈ 0.132 µg/mL) | IC50 [3]: 173 nM; IC50 [4]: > 224000 nM
3 | O=C1COc2ccc(CNC3CCN(CCn4c(=O)ccc5ncc(Oc6cncc(F)c6)cc54)CC3)nc2N1 | 0.25 µM (≈ 0.136 µg/mL) | –
4 | O=C1COc2ccc(CN[C@@H]3CCN(CCn4c(=O)ccc5ncc(Oc6cccnc6)cc54)C[C@@H]3F)nc2N1 | 0.25 µM (≈ 0.136 µg/mL) | permeability (Caco-2): permeable; LCK [5]: 1; IC50 [3]: 800 nM; LCK [6]: >1; Activity [7]: Dose-dependent effect; solubility [2]: 665 µM (≈ 363 µg/mL)
5 | COc1cnc2ccc(=O)n(CCN3CCC(c4nc5cc(Cl)ccc5[nH]4)CC3)c2c1 | 0.25 µM (≈ 0.109 µg/mL) | –
6 | O=C1COc2ccc(CNC3CCN(CCn4c(=O)ccc5ncc(OCc6ccccn6)cc54)CC3)nc2N1 | 0.5 µM (≈ 0.271 µg/mL) | –
7 | O=C1COc2ccc(CNC3CCN(CCn4c(=O)ccc5ccc(Oc6ccon6)nc54)CC3)nc2N1 | 0.25 µM (≈ 0.129 µg/mL) | –
8 | O=C1COc2ccc(CNC3CCN(CCn4c(=O)ccc5ccc(Oc6cccnc6)nc54)CC3)nc2N1 | 0.06 µM (≈ 0.0317 µg/mL) | IC50 [3]: 104 nM
9 | Cn1ccc(COc2cnc3ccc(=O)n(CCN4CCC(NCc5ccc6c(n5)NC(=O)CO6)CC4)c3c2)n1 | 0.25 µM (≈ 0.136 µg/mL) | –
10 | NS(=O)(=O)c1ccc(Oc2ccc3ccc(=O)n(CCN4CCC(NCc5ccc6c(n5)NC(=O)CO6)CC4)c3n2)cc1 | 0.03 µM (≈ 0.0182 µg/mL) | permeability (Caco-2): impermeable; IC50 [4]: > 100000 nM
11 | O=C1COc2ccc(CNC3CCN(CCn4c(=O)ccc5ncc(O[C@H]6CCOC6)cc54)CC3)nc2N1 | 0.5 µM (≈ 0.26 µg/mL) | –
12 | COc1ccc2ccc(=O)n(CCN3CCC(NCc4ccc5c(n4)NC(=O)CO5)CC3)c2n1 | 0.25 µM (≈ 0.116 µg/mL) | IC50 [4]: 23000 nM
13 | O=C1COc2ccc(CN[C@@H]3CCN(CCn4c(=O)ccc5ncc(Oc6ccon6)cc54)C[C@@H]3F)nc2N1 | 0.25 µM (≈ 0.134 µg/mL) | permeability (Caco-2): permeable; solubility [2]: 665 µM (≈ 356 µg/mL)
14 | NS(=O)(=O)c1ccc(Oc2cnc3ccc(=O)n(CCN4CCC(c5nc6cc(Cl)ccc6[nH]5)CC4)c3c2)cc1 | 0.19 µM (≈ 0.11 µg/mL) | permeability (Caco-2): impermeable
15 | O=C1COc2ccc(CNC3CCN(CCn4c(=O)ccc5ncc(Oc6cccnc6)cc54)CC3)nc2N1 | 0.06 µM (≈ 0.0317 µg/mL) | permeability (Caco-2): permeable; solubility [2]: 665 µM (≈ 351 µg/mL)
16 | Cc1ncc(CNC2CCN(CCn3c(=O)ccc4ncc(F)cc43)CC2)cc1Cl | 0.19 µM (≈ 0.0817 µg/mL) | IC50 [3]: 250 nM
17 | O=C1COc2ccc(CNC3CCN(CCn4c(=O)ccc5ncc(OCc6cccnn6)cc54)CC3)nc2N1 | 1 µM (≈ 0.543 µg/mL) | –
18 | Cc1ncc(CNC2CCN(CCn3c(=O)ccc4ncc(Oc5ccc(S(N)(=O)=O)cc5)cc43)CC2)cc1C#N | 0.06 µM (≈ 0.0344 µg/mL) | IC50 [4]: > 100000 nM
19 | NNC(=O)c1ccncc1 [ISONIAZID] | 0.06 µM (≈ 0.00823 µg/mL) | –
20 | O=C(O)c1cn(C2CC2)c2cc(N3CCNCC3)c(F)cc2c1=O [CIPROFLOXACIN] | 0.5 µM (≈ 0.166 µg/mL) | –
21 | O=C1COc2ccc(CNC3CCN(CCn4c(=O)ccc5ncc(O[C@@H]6CCOC6)cc54)CC3)nc2N1 | 0.25 µM (≈ 0.13 µg/mL) | –
22 | Cc1cc2[nH]c(C3CCN(CCn4c(=O)ccc5ncc(Oc6ccc(S(N)(=O)=O)cc6)cc54)CC3)nc2cc1C#N | 0.25 µM (≈ 0.146 µg/mL) | IC50 [4]: > 33000 nM
23 | O=C1COc2ccc(CNC3CCN(CCn4c(=O)ccc5ccc(Cl)nc54)CC3)nc2N1 | 0.19 µM (≈ 0.0891 µg/mL) | IC50 [3]: 110 nM
24 | Cc1ncc(CNC2CCN(CCn3c(=O)ccc4ncc(Oc5ccc(S(N)(=O)=O)cc5)cc43)CC2)cc1Cl | 0.06 µM (≈ 0.035 µg/mL) | IC50 [4]: 82000 nM
25 | COc1c(N2C[C@@H]3CCCN[C@@H]3C2)c(F)cc2c(=O)c(C(=O)O)cn(C3CC3)c12 [MOXIFLOXACIN] | 0.13 µM (≈ 0.0522 µg/mL) | –

From ChEMBL document CHEMBL3608244, “Left-Hand Side Exploration of Novel Bacterial Topoisomerase Inhibitors to Improve Selectivity against hERG Binding” (ACS Med Chem Lett, 2015)
